Data as given in patent US10959998B2, “Pharmaceutical use and pharmaceutical composition of pyrroloquinoline quinine, its derivatives and/or its salts” (priority 2015, dated 2021).

Columns and labels:
[1] = test system: endometrial stromal cells; assay: Transwell/matrigel invasion assay; assay type: cell-based, human; conditions: 48 h
Experimental: 500 μL culture medium containing 10% FBS was added into each wells in a 24-well plate. Transwell chambers were treated with 0.3 mg/ml FN diluted by serum free 1640 culture medium (BD company). The cells were seeded (5×10^4 cells/chamber) in the transwell up-chamber, in which 100 μL media were kept finally. The cells were cultured in an incubator at 37° C. in an air atmosphere containing 5% CO2 for the specified time. The chambers were taken out, stained with 0.1% crystal violet, and were photographed. Crystal violet on the membrane was dissolved with 300 μL of 33% Glacial acetic acid. The optical absorption was measured at wavelength 573 nm. On the ice, 100 μL matrigel was taken in with pre-chilled micropipette, transferred into 300 ul pre-chilled serum free medium. The mixture solution was thoroughly mixed to achieve uniform. 25 ul of the previous diluted matrigel was put into transwell up-chamber, covering the whole carbon ester membrane. The transwell was incubated at 37° C., 30 min for Matrigel gelling. The rest treatment was the same as that in Transwell assay.

[2] = test system: hydrogen peroxide (H2O2) in endometrial stromal cells; assay: Determination of hydrogen peroxide (H2O2) content; assay type: cell-based, human; conditions: 18 h
Experimental: Superoxide anion (O2.^−) assay kit was purchased from Nanjing Jiancheng Bioengineering Insitute; Hydroxyl free radical assay kit was purchased from Shanghai Xinyu Biological Technology Co., Ltd., Hydrogen Peroxide Assay Kit was purchased from Beyotime Biotechnology Research Institute. The cells were seeded in 6-well cell culture plates and incubated for 24 h after the cells adhered to the plate. Three different concentrations PQQ (30 nm, 300 nm and 3 μm) were added to the cultures respectively. After additional 18 h incubation, the cells were lysed using the lysis buffer contained in reagent kit, centrifuged at 12000×g for 5 min at 4° C. 50 μL of sample supernatant was mixed with 100 μL detection solution, rested 30 min at room temperature. The optical density at wavelength 560 nm was measured.

[3] = test system: endometrial stromal cells; assay: Apoptosis by Annexin V-FITC/PI flow cytometry; assay type: cell-based, human; conditions: regardless of dose, 24 h
Experimental: (§1) Endometrial tissues were surgically isolated from patients with chocolate cyst of ovary, washed 2 to 3 times with PBS supplemented with antibiotics in ultra-clean cabinet, and cut into tiny pieces (about 1 mm^3 in size) with aseptic scissors. The tissues were digested with 1 mg/ml collagenase type I for 30 to 90 min at 37° C., and continually digested with Dnase I (final concentration of 15 U/ml, 2% Dnase I) for another 30 min. The digested tissues were filtered thorough 60-mesh stainless steel filter cell strainer to remove the undigested cell tissues, and were further filtered with 200- or 400-mesh strainer. The filtered solution was centrifuged at 1000 rpm for 5 min. After removing the supernatants, the cells were washed once with culture medium compounded by DMEM/F12 (1:1 v/v) and 10% fetal bovine serum, re-suspended in the culture medium, and seeded in 6-well tissue culture plate or T25 tissue culture flasks with an appropriate density. After 24 hours incubation, the culture medium was changed to remove the non-adherent blood cells, endothelial cells, macrophages and other miscellaneous cells. […] Vimentin which expresses specifically in stromal cells was detected by immuno-fluorescence to measure the cell purity. […] Cell cycle was determined with flow cytometry. […] Cell apotosis was determined by flow cytometry.

[4] = test system: endometrial stromal cells; assay: Scratch test (scratch healing, cell migration); assay type: cell-based, human; conditions: for scratch healing: P<0.05
Experimental: Before the cells were plated, horizontal lines were scratched on the back of 24-well plate using a blade with the guide of a ruler. For each well, three evenly distributed lines which horizontally crossed the well were scratched. Two days after transfection, the cell fusion rate reached 90%. The wound were created by scratching on the cell layer with micropipette tip in a direction perpendicular to the lines on the back of the plate with the aid of ruler. During the operation, the micropipette tip should be kept perpendicular to the plate, and not tilt to one side. The cells were washed for three times with PBS to remove the exfoliated cells after being scratched, and 1640 culture medium supplemented with 2% FBS was added to the cells. The cells were cultured in an incubator at 37° C., in an air atmosphere containing 5% CO2. The cells were photographed in the same field of view at each indicated time point.

[5] = test system: ectopic endometrial stromal cells; assay: Cell cycle by propidium iodide flow cytometry; assay type: cell-based, human; conditions: 24 h, p<0.01
Experimental: as §1

[6] = test system: hydroxyl radical (.OH) in endometrial stromal cells; assay: Determination of hydroxyl radical (.OH) content; assay type: cell-based, human; conditions: 18 h
Experimental: Superoxide anion (O2.^−) assay kit was purchased from Nanjing Jiancheng Bioengineering Insitute; Hydroxyl free radical assay kit was purchased from Shanghai Xinyu Biological Technology Co., Ltd., Hydrogen Peroxide Assay Kit was purchased from Beyotime Biotechnology Research Institute. The cells were seeded in 6-well plate at 8×10^5 cells/well, and incubated for 24 h after the cells adhered to the plate. Three different concentrations of PQQ (30 nm, 300 nm and 3 μm) were added to the cultures respectively. The cells were incubated for additional 18 h. At the end of the treatment, the cultured cells were collected. 50 μL samples were added to each cell, followed by addition of 50 μL of antibody working solution. The sample was shaken to achieve a uniform mixture, and reacted at 37° C. for 30 min. The plates were then washed for four to five times. 100 μL of enzyme marker was added to each well. The resulting mixture was allowed to react for 20 min at 37° C. Coloration method: 50 μL of buffer liquid and 50 μL of substrate solution were added to each well in sequence. The mixture solution was gently shaken to achieve a uniform mixing, and coloured for 10 min in the dark at 37° C. […] The optical density at wavelength 560 nm was measured with microplate reader (Read the data in 20 min).

[7] = cited from earlier work

O=C(O)c1cc(C(=O)O)c2c(n1)C(=O)C(=O)c1cc(C(=O)O)[nH]c1-2 [PQQ, pyrroloquinoline quinone]
inhibitory effect on cell invasion compared to the control group ([1]; 300 nM PQQ, statistically meaningful): definite inhibitory effect
reduction of invasion ability of endometrial stromal cells ([1]; 3 μM PQQ): 35%
inhibitory effect on cell invasion compared to the control group ([1]; PQQ): not obvious
relative content of hydrogen peroxide (H2O2) ([2]; PQQ 300 nM): significantly declined
relative content of hydrogen peroxide (H2O2) ([2]; PQQ 3 uM): significantly declined
apoptosis or necrosis compared to the control [3]: No endometrial stromal cells apoptosis or necrosis
migration of endometrial cells (scratch healing) ([4]; PQQ 30 nM, P>0.05): partially restrain the migration of the endometrial cells
scratch healing ([4]; PQQ 300 nM): significantly inhibit scratch healing
scratch coverage rate lower than in the control group ([4]; PQQ 3 μM, 72 h): 42%
scratch healing ([4]; PQQ 3 μM): significantly inhibit scratch healing
cell cycle ([5]; PQQ 3 um): arrest the cell in G0/G1 phase
cell cycle ([5]; PQQ 300 nm): arrest the cell in G0/G1 phase
relative content of hydroxyl radical (.OH) ([6]; PQQ 300 nM): significantly declined
relative content of hydroxyl radical (.OH) ([6]; PQQ 3 uM): significantly declined
adverse reactions ([7]; mice fed 100 mg/kg body weight/day for 14 consecutive days): did not show any adverse reactions
half lethal dose ([7]; mice): 1000-2000 mg/kg body weight/day
